Laboratory results from patent publication US20080009418A1, “Selective Inhibitors” (Alchemia LTD., priority 2004, published 2008).

What was measured:
[1] = target: T1, Human neuropeptide Y (NPY-Y1) (Homo sapiens, UniProt P25929); test: Radioligand binding, human neuropeptide Y NPY-Y1 membranes, FlashPlate, [125I]-PYY; settings: compound at 10 μM, [125I]-PYY
T1 construct: purchased Perkin Elmer Biosignal
T1 sequence (P25929 1-384): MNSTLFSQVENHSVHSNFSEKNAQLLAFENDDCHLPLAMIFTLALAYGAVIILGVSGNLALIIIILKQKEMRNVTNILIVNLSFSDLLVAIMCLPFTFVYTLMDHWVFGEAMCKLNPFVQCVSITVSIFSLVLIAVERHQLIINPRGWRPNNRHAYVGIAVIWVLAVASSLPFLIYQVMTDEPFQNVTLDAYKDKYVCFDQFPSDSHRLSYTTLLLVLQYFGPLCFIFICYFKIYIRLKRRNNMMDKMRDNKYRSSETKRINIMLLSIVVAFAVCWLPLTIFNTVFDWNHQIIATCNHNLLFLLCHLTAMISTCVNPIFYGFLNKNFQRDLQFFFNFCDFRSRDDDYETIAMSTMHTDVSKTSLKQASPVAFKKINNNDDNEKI
Outline: (§1)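 Cloned human receptor membranes were coated onto FlashPlate wells and incubated with radioligand and compound (added from a 0.5 mM DMSO daughter plate) for 1 hour at room temperature in the dark. Scintillation counting gave percent inhibition, with DMSO defining total and reference ligand defining non-specific binding.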

[2] = target: T2, Human neurokinin (NK1) (Homo sapiens, UniProt P25103); test: Radioligand binding, human neurokinin NK1 membranes, filtration, [125I]-Substance P; settings: compound at 10 μM, [125I]-Substance P
T2 construct: purchased Perkin Elmer Biosignal
T2 sequence (P25103 whole entry): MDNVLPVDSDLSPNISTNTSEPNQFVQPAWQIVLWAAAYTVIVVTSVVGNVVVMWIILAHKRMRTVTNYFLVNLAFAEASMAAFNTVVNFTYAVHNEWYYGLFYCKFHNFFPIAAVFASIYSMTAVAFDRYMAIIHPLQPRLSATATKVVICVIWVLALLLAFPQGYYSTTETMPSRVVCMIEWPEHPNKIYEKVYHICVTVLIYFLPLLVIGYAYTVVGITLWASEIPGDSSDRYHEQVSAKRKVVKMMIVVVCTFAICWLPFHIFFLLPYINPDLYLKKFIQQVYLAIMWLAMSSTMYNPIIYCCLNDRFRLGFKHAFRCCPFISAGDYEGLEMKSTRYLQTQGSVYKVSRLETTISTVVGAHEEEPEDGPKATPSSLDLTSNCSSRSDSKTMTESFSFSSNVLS
Outline: (§2)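 Filtration binding on cloned human receptor membranes (1 Unit/well), [125I]-Substance P for NK1 and [3H]-Diprenorphine for KOP, 1 h at room temperature. Filters PEI-presoaked, washed with cold 50 mM Tris-HCl pH 7.4, counted by scintillation; percent inhibition calculated, reference ligand defining non-specific binding.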

[3] = target: T3, Human κ-Opioid (KOP) (Homo sapiens, UniProt P41145); test: Radioligand binding, human κ-opioid (KOP) membranes, filtration, [3H]-Diprenorphine; settings: compound at 10 μM, [3H]-Diprenorphine
T3 construct: purchased Perkin Elmer Biosignal
T3 sequence (P41145 whole entry): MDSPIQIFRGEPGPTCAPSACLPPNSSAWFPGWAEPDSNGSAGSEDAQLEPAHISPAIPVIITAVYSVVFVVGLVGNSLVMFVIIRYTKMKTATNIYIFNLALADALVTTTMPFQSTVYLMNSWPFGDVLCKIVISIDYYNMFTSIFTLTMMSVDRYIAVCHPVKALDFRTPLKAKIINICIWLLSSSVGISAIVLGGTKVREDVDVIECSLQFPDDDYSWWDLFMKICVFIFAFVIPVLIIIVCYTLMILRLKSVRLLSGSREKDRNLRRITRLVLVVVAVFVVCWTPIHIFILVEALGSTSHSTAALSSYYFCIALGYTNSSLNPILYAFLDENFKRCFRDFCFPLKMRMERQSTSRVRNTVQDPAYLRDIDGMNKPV
Outline: as §2

[4] = target: T4, Human melanin-concentrating hormone (MCH1) (Homo sapiens, UniProt Q99705); test: Radioligand binding, human melanin-concentrating hormone MCH1 membranes, FlashPlate, [125I]-S36057; settings: compound at 10 μM; for A6: inhibition of radioligand binding, human melanin-concentrating hormone (MCH1): [125I]-S36057
T4 construct: purchased Perkin Elmer Biosignal
T4 sequence (Q99705 whole entry): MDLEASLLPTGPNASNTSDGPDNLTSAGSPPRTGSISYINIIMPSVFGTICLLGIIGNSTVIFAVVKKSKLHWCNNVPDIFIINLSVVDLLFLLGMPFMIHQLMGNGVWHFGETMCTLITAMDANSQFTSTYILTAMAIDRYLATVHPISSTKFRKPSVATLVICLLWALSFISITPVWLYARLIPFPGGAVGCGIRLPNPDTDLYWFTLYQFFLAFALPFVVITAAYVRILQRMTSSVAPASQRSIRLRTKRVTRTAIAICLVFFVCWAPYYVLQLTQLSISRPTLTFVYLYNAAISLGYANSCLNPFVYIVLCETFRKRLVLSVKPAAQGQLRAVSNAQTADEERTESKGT
Outline: as §1

[5] = target: T5, Human opioid (ORL1) (Homo sapiens, UniProt P41146); test: Radioligand binding, human opioid ORL1 membranes, FlashPlate, [125I]-Nociceptin; settings: compound at 10 μM, [125I]-Nociceptin
T5 construct: purchased Perkin Elmer Biosignal
T5 sequence (P41146 whole entry): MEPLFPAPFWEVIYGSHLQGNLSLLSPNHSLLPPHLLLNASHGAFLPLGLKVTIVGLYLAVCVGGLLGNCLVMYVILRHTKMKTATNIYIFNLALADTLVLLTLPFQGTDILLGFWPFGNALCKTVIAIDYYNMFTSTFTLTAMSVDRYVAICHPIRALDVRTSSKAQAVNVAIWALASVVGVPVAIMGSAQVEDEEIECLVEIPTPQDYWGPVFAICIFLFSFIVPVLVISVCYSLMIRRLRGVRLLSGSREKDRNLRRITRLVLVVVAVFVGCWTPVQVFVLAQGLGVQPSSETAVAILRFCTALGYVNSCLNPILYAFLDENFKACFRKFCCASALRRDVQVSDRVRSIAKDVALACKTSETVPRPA
Outline: as §1

[6] = target: T6, Human melanocortin (MC5) (Homo sapiens, UniProt P33032); test: Radioligand binding, human melanocortin MC5 membranes, FlashPlate, [125I]-NDP-αMSH; settings: compound at 10 μM, [125I]-NDP-αMSH
T6 construct: purchased Perkin Elmer Biosignal
T6 sequence (P33032 whole entry): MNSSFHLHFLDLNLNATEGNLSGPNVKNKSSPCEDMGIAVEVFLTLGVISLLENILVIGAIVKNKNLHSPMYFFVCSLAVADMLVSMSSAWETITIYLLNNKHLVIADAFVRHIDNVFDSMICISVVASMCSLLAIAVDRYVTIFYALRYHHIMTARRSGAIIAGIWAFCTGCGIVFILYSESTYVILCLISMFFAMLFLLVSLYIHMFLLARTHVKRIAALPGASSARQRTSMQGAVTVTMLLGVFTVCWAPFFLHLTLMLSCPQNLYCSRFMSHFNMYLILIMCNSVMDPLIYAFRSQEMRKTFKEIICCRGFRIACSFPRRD
Outline: as §1

[7] = target: T7, Human δ-opioid (DOP) (Homo sapiens, UniProt P41143); test: Radioligand binding, human δ-opioid (DOP) membranes, FlashPlate, [3H]-Bremazocine; settings: compound at 10 μM, [3H]-Bremazocine
T7 construct: purchased Perkin Elmer Biosignal
T7 sequence (P41143 whole entry): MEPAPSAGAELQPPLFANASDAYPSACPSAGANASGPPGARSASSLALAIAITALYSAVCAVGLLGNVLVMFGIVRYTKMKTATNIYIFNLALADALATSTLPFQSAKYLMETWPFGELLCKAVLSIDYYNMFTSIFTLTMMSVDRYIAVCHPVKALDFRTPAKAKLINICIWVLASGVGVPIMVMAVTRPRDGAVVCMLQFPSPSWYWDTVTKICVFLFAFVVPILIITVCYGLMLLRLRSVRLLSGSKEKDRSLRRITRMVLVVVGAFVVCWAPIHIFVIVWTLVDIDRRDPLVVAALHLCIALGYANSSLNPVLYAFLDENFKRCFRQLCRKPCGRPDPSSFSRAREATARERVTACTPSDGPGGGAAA
Outline: as §1

[8] = target: T8, Human Melanocortin (MC3) (Homo sapiens, UniProt P41968); test: Radioligand binding, human melanocortin MC3 membranes, FlashPlate, [125I]-NDP-αMSH; settings: compound at 10 μM, [125I]-NDP-αMSH
T8 construct: purchased Perkin Elmer Biosignal
T8 sequence (P41968 whole entry): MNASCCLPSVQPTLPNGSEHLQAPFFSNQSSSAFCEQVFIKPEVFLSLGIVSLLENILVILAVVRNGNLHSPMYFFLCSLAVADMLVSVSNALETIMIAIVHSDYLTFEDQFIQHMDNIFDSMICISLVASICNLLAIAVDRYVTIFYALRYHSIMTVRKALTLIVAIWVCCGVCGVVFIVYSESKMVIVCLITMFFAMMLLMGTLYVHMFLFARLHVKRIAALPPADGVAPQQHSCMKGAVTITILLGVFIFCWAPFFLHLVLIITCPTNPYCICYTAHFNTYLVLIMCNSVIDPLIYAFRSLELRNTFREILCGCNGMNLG
Outline: as §1

[9] = target: T9, Human μ-opioid (MOP) (Homo sapiens, UniProt P35372); test: Radioligand binding, human μ-opioid (MOP) membranes, FlashPlate, [3H]-Naloxone; settings: compound at 10 μM, [3H]-Naloxone
T9 construct: purchased Perkin Elmer Biosignal
T9 sequence (P35372 whole entry): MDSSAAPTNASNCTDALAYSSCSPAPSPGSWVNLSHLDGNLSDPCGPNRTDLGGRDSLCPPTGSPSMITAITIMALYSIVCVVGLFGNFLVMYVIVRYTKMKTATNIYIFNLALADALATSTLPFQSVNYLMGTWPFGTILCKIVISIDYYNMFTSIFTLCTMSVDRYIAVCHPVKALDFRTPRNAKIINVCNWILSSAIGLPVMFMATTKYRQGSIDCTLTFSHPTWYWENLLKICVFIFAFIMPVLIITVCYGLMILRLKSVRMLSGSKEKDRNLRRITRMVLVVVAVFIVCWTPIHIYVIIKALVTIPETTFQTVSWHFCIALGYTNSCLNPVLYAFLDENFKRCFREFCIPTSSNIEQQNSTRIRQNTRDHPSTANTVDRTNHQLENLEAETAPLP
Outline: as §1

[10] = target: T10, Mouse urotensin (mUR2) (Mus musculus, UniProt Q8VIH9); test: Radioligand binding, mouse urotensin mUR2 membranes, FlashPlate, [125I]-Urotensin II; settings: compound at 10 μM, [125I]-Urotensin II
T10 construct: purchased Perkin Elmer Biosignal
T10 sequence (Q8VIH9 1-385): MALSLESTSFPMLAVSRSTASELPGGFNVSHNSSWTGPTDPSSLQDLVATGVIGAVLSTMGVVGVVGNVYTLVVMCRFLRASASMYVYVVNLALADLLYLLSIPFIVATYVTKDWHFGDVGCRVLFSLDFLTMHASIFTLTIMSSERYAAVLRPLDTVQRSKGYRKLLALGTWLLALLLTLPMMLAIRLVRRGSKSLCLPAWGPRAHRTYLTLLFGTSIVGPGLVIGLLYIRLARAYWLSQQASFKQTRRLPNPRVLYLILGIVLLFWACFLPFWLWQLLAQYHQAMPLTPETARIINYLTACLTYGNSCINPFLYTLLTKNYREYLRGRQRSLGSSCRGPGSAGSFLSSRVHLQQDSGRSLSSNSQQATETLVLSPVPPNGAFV
Outline: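 Cloned mouse urotensin (mUR2) receptor membranes from Perkin Elmer Biosignal were immobilized in FlashPlate microplates using a proprietary coating. Each well got 19.5 μl buffer, then 0.5 μl of DMSO, reference ligand, or compound. Adding 5 μl of [125I]-Urotensin II, diluted to 5× final concentration in binding buffer, started binding. Plates were sealed with TopSeal-A and incubated 1 hour at room temperature in the dark. Wells were counted for 30 seconds each on a TopCount after a 60-second delay, and percentage inhibition was calculated.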

[11] = target: T11, Human Melanocortin (MC4) (Homo sapiens, UniProt P32245); test: Radioligand binding, human melanocortin MC4 membranes, FlashPlate, [125I]-NDP-αMSH; settings: compound at 10 μM, [125I]-NDP-αMSH
T11 construct: purchased Perkin Elmer Biosignal
T11 sequence (P32245 whole entry): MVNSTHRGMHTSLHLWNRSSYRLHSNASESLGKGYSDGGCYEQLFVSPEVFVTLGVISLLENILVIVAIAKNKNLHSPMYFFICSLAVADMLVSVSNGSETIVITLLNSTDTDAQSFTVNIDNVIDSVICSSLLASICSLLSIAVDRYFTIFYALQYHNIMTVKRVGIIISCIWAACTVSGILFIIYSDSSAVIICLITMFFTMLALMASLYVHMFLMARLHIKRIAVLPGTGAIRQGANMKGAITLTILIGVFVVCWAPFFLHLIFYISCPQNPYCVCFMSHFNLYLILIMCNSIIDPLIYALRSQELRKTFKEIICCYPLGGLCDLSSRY
Outline: as §1

CSC1OC(COCc2ccc(-c3ccccc3)cc2)C(O)C(OCc2ccccc2)C1NC(=O)CCCN (stereo not shown) [compound 258]
A9: inhibition of radioligand binding ([1]; FlashPlate): − (“−” indicates less than 50% inhibition at 10 μM) | A8: inhibition of radioligand binding ([2]; filtration): + (“+” indicates greater than 50% inhibition at 10 μM) | A2: inhibition of radioligand binding ([3]; filtration): − (“−” indicates less than 50% inhibition at 10 μM) | A6: inhibition of radioligand binding ([4]; [125I]-S36057, FlashPlate): − (“−” indicates less than 50% inhibition at 10 μM) | A10: inhibition of radioligand binding ([5]; FlashPlate): − (“−” indicates less than 50% inhibition at 10 μM) | A5: inhibition of radioligand binding ([6]; FlashPlate): − (“−” indicates less than 50% inhibition at 10 μM) | A1: inhibition of radioligand binding ([7]; FlashPlate): − (“−” indicates less than 50% inhibition at 10 μM) | A3: inhibition of radioligand binding ([8]; FlashPlate): − (“−” indicates less than 50% inhibition at 10 μM) | A7: inhibition of radioligand binding ([9]; FlashPlate): − (“−” indicates less than 50% inhibition at 10 μM) | A11: inhibition of radioligand binding ([10]; FlashPlate): − (“−” indicates less than 50% inhibition at 10 μM) | A4: inhibition of radioligand binding ([11]; FlashPlate): − (“−” indicates less than 50% inhibition at 10 μM)

NCCC(=O)NC1C(OCc2ccccc2)OC(COCc2ccccc2)C(O)C1OCc1ccccc1 (stereo not shown) [compound 370]
A9: inhibition of radioligand binding, human neuropeptide Y (NPY-Y1) [1]: − (“−” indicates less than 50% inhibition at 10 μM) | A8: inhibition of radioligand binding, human neurokinin (NK1) [2]: + (“+” indicates greater than 50% inhibition at 10 μM) | A2: inhibition of radioligand binding, human κ-opioid (KOP) [3]: − (“−” indicates less than 50% inhibition at 10 μM) | A6: inhibition of radioligand binding, human melanin-concentrating hormone (MCH1) [4]: − (“−” indicates less than 50% inhibition at 10 μM) | A10: inhibition of radioligand binding, human opioid (ORL1) [5]: − (“−” indicates less than 50% inhibition at 10 μM) | A5: inhibition of radioligand binding, human melanocortin (MC5) [6]: − (“−” indicates less than 50% inhibition at 10 μM) | A1: inhibition of radioligand binding, human δ-opioid (DOP) [7]: − (“−” indicates less than 50% inhibition at 10 μM) | A3: inhibition of radioligand binding, human melanocortin (MC3) [8]: − (“−” indicates less than 50% inhibition at 10 μM) | A7: inhibition of radioligand binding, human μ-opioid (MOP) [9]: − (“−” indicates less than 50% inhibition at 10 μM) | A11: inhibition of radioligand binding, mouse urotensin (mUR2) [10]: − (“−” indicates less than 50% inhibition at 10 μM) | A4: inhibition of radioligand binding, human melanocortin (MC4) [11]: − (“−” indicates less than 50% inhibition at 10 μM)

N=C(N)NCC(=O)N[C@H]1C(OCc2ccc(Cl)cc2)O[C@H](COCc2ccc(Cl)cc2)[C@@H](O)[C@@H]1OCc1ccc(-c2ccccc2)cc1 (stereo partly shown) [compound 520]
A9: inhibition of radioligand binding, human neuropeptide Y (NPY-Y1) [1]: − (“−” indicates less than 50% inhibition at 10 μM) | A8: inhibition of radioligand binding, human neurokinin (NK1) [2]: + (“+” indicates greater than 50% inhibition at 10 μM) | A2: inhibition of radioligand binding, human κ-opioid (KOP) [3]: − (“−” indicates less than 50% inhibition at 10 μM) | A6: inhibition of radioligand binding, human melanin-concentrating hormone (MCH1) [4]: + (“+” indicates greater than 50% inhibition at 10 μM) | A10: inhibition of radioligand binding, human opioid (ORL1) ([5]; 10 µM): − (“−” indicates less than 50% inhibition at 10 μM) | A5: inhibition of radioligand binding, human melanocortin (MC5) [6]: + (“+” indicates greater than 50% inhibition at 10 μM) | A1: inhibition of radioligand binding, human δ-opioid (DOP) [7]: − (“−” indicates less than 50% inhibition at 10 μM) | A3: inhibition of radioligand binding, human melanocortin (MC3) [8]: + (“+” indicates greater than 50% inhibition at 10 μM) | A7: inhibition of radioligand binding, human μ-opioid (MOP) [9]: − (“−” indicates less than 50% inhibition at 10 μM) | A11: inhibition of radioligand binding, mouse urotensin (mUR2) [10]: − (“−” indicates less than 50% inhibition at 10 μM) | A4: inhibition of radioligand binding, human melanocortin (MC4) [11]: + (“+” indicates greater than 50% inhibition at 10 μM)

NCC1CCC(C(=O)NC2O[C@H](CO)[C@@H](O)[C@H](OCc3ccc(Cl)cc3)[C@H]2NC(=O)c2ccccc2)CC1 (stereo partly shown) [compound 361]
A9: inhibition of radioligand binding, human neuropeptide Y (NPY-Y1) [1]: − (“−” indicates less than 50% inhibition at 10 μM) | A8: inhibition of radioligand binding, human neurokinin (NK1) [2]: − (“−” indicates less than 50% inhibition at 10 μM) | A2: inhibition of radioligand binding, human κ-opioid (KOP) [3]: − (“−” indicates less than 50% inhibition at 10 μM) | A6: inhibition of radioligand binding, human melanin-concentrating hormone (MCH1) [4]: − (“−” indicates less than 50% inhibition at 10 μM) | A10: inhibition of radioligand binding, human opioid (ORL1) [5]: − (“−” indicates less than 50% inhibition at 10 μM) | A5: inhibition of radioligand binding, human melanocortin (MC5) [6]: − (“−” indicates less than 50% inhibition at 10 μM) | A1: inhibition of radioligand binding, human δ-opioid (DOP) [7]: − (“−” indicates less than 50% inhibition at 10 μM) | A3: inhibition of radioligand binding, human melanocortin (MC3) [8]: − (“−” indicates less than 50% inhibition at 10 μM) | A7: inhibition of radioligand binding, human μ-opioid (MOP) [9]: − (“−” indicates less than 50% inhibition at 10 μM) | A11: inhibition of radioligand binding, mouse urotensin (mUR2) [10]: − (“−” indicates less than 50% inhibition at 10 μM) | A4: inhibition of radioligand binding, human melanocortin (MC4) [11]: + (“+” indicates greater than 50% inhibition at 10 μM)

COC[C@H]1OC(OCc2ccc3ccccc3c2)[C@H](NC(=O)CCCN)[C@@H](OCc2ccc(Cl)cc2)[C@@H]1O (stereo partly shown) [compound 340]
A9: inhibition of radioligand binding, human neuropeptide Y (NPY-Y1) [1]: − (“−” indicates less than 50% inhibition at 10 μM) | A8: inhibition of radioligand binding, human neurokinin (NK1) [2]: + (“+” indicates greater than 50% inhibition at 10 μM) | A2: inhibition of radioligand binding, human κ-opioid (KOP) [3]: − (“−” indicates less than 50% inhibition at 10 μM) | A6: inhibition of radioligand binding, human melanin-concentrating hormone (MCH1) [4]: − (“−” indicates less than 50% inhibition at 10 μM) | A10: inhibition of radioligand binding, human opioid (ORL1) [5]: − (“−” indicates less than 50% inhibition at 10 μM) | A5: inhibition of radioligand binding, human melanocortin (MC5) [6]: − (“−” indicates less than 50% inhibition at 10 μM) | A1: inhibition of radioligand binding, human δ-opioid (DOP) [7]: − (“−” indicates less than 50% inhibition at 10 μM) | A3: inhibition of radioligand binding, human melanocortin (MC3) [8]: − (“−” indicates less than 50% inhibition at 10 μM) | A7: inhibition of radioligand binding, human μ-opioid (MOP) [9]: − (“−” indicates less than 50% inhibition at 10 μM) | A11: inhibition of radioligand binding, mouse urotensin (mUR2) [10]: − (“−” indicates less than 50% inhibition at 10 μM) | A4: inhibition of radioligand binding, human melanocortin (MC4) [11]: − (“−” indicates less than 50% inhibition at 10 μM)
